pIC50: −log10 of the molar value. The source made the active and inactive calls. No cut-off for these calls is given here.
Experiments:
[1] = system: K562; assay: Antiproliferative activity against human K562 cells assessed as cell growth inhibition incubated for 72 hrs by MTT assay; format: functional
[2] = biological target: Bcr/Abl fusion protein (Homo sapiens, UniProt P00519, T315I); assay: Inhibition of BCR-ABL T315I mutant (unknown origin) incubated for 40 mins in presence of [gamma33P]ATP by scintillation method; format: protein assay
[3] = biological target: Bcr/Abl fusion protein (Homo sapiens, UniProt P00519); assay: Inhibition of wild type BCR-ABL (unknown origin) incubated for 40 mins in presence of [gamma33P]ATP by scintillation method; format: protein assay
[4] = Antiproliferative activity against human L132 cells assessed as cell growth inhibition incubated for 72 hrs by MTT assay; format: cell-based
[5] = system: HL-60(TB); assay: Antiproliferative activity against human HL-60(TB) cells assessed as cell growth inhibition measured after 48 hrs by SRB assay; format: functional
[6] = system: SR; assay: Antiproliferative activity against human SR cells assessed as cell growth inhibition at 10 uM measured after 48 hrs by SRB assay relative to control; format: functional; details: read-out: GI
[7] = system: RPMI-8226; assay: Antiproliferative activity against human RPMI-8226 cells assessed as cell growth inhibition measured after 48 hrs by SRB assay; format: functional
[8] = system: RPMI-8226; assay: Antiproliferative activity against human RPMI-8226 cells assessed as cell growth inhibition at 10 uM measured after 48 hrs by SRB assay relative to control; format: functional; details: read-out: GI
[9] = system: K562; assay: Antiproliferative activity against human K562 cells assessed as cell growth inhibition at 10 uM measured after 48 hrs by SRB assay relative to control; format: functional; details: read-out: GI
[10] = system: CCRF-CEM; assay: Antiproliferative activity against human CCRF-CEM cells assessed as cell growth inhibition at 10 uM measured after 48 hrs by SRB assay relative to control; format: functional; details: read-out: GI
[11] = Selectivity index, ratio of GI50 for human HL60(TB) cells to GI50 for human K562 cells; format: functional
[12] = system: CCRF-CEM; assay: Antiproliferative activity against human CCRF-CEM cells assessed as cell growth inhibition measured after 48 hrs by SRB assay; format: functional
[13] = system: MOLT-4; assay: Antiproliferative activity against human MOLT-4 cells assessed as cell growth inhibition measured after 48 hrs by SRB assay; format: functional
[14] = system: SR; assay: Antiproliferative activity against human SR cells assessed as cell growth inhibition measured after 48 hrs by SRB assay; format: functional
[15] = system: MOLT-4; assay: Antiproliferative activity against human MOLT-4 cells assessed as cell growth inhibition at 10 uM measured after 48 hrs by SRB assay relative to control; format: functional; details: read-out: GI
[16] = system: HL-60(TB); assay: Antiproliferative activity against human HL-60(TB) cells assessed as cell growth inhibition at 10 uM measured after 48 hrs by SRB assay relative to control; format: functional
[17] = system: K562; assay: Antiproliferative activity against human K562 cells assessed as cell growth inhibition measured after 48 hrs by SRB assay; format: functional

Row | Structure (SMILES) | GI50 [1] [nM] | pIC50 [2] | pIC50 [3] | GI50 at 72 h [4] [nM] | further results
1 | CN1CCN(Cc2cc(NC(=O)c3cccc(C#Cc4cccc5[nH]nc(N)c45)c3)cc(C(F)(F)F)c2)CC1 | 300 | 5.79 | 7.25 | > 100000 | –
2 | CN1CCN(c2ccc(C(=O)Nc3cccc(C#Cc4cccc5[nH]nc(N)c45)c3)cc2C(F)(F)F)CC1 | 1480 | – | – | > 10000 | –
3 | Nc1n[nH]c2cccc(C#Cc3cccc(NC(=O)c4cccc(C(F)(F)F)c4)c3)c12 | 1540 | 5.59 | – | > 100000 | –
4 | Nc1n[nH]c2cccc(C#Cc3cccc(C(=O)Nc4ccc(Cl)c(C(F)(F)F)c4)c3)c12 | 3810 | 5.85 | – | > 100000 | –
5 | Cc1cn(-c2cc(C(=O)Nc3cccc(C#Cc4cccc5[nH]nc(N)c45)c3)cc(C(F)(F)F)c2)cn1 | 70 | 5.84 | 7.81 | 10900 | –
6 | Cc1cn(-c2cc(NC(=O)c3cccc(C#Cc4cccc5[nH]nc(N)c45)c3)cc(C(F)(F)F)c2)cn1 | 150 | 6.08 | 7.59 | 12900 | GI50 [5]: 3220 nM; inhibition of growth at 10 µM [6]: 71.7%; GI50 [7]: 4540 nM; inhibition of growth at 10 µM [8]: 86.2%; inhibition of growth at 10 µM [9]: 96.8%; inhibition of growth at 10 µM [10]: 85%; RatioGI50 [11]: 322; GI50 [12]: 4880 nM; GI50 [13]: 3840 nM; GI50 [14]: 5060 nM; inhibition of growth at 10 µM [15]: 79.3%; inhibition of growth at 10 µM ([16]; read-out: GI): 87.5%; GI50 [17]: < 10 nM
7 | Cc1ccc(NC(=O)c2ccc(CN3CCN(C)CC3)cc2)cc1Nc1nccc(-c2cccnc2)n1 [IMATINIB] | 800 | – | – | > 10000 | inhibition of growth at 10 µM [6]: 14.6%; inhibition of growth at 10 µM [8]: 12.6%; inhibition of growth at 10 µM [10]: 6.6%; inhibition of growth at 10 µM [15]: 18%; growth inhibition (GI) [16]: inactive; GI50 [17]: 20 nM
8 | Nc1n[nH]c2cccc(C#Cc3cccc(C(=O)Nc4cc(CN5CCOCC5)cc(C(F)(F)F)c4)c3)c12 | 830 | 5.60 | 6.24 | 16700 | –
9 | Nc1n[nH]c2cccc(C#Cc3cccc(C(=O)Nc4ccc(CN5CCOCC5)c(C(F)(F)F)c4)c3)c12 | 570 | 5.79 | 6.71 | > 100000 | –
10 | Nc1n[nH]c2cccc(C#Cc3cccc(C(=O)Nc4cccc(C(F)(F)F)c4)c3)c12 | 3470 | 5.65 | – | 15300 | –
11 | Cc1ccc(C(=O)Nc2cccc(C#Cc3cccc4[nH]nc(N)c34)c2)cc1C(F)(F)F | 2350 | – | – | > 100000 | –
12 | Nc1n[nH]c2cccc(C#Cc3cccc(NC(=O)c4cc(F)cc(C(F)(F)F)c4)c3)c12 | 2140 | 5.28 | – | > 100000 | –
13 | Nc1n[nH]c2cccc(C#Cc3cccc(C(=O)Nc4cc(C(F)(F)F)cc(C(F)(F)F)c4)c3)c12 | 520 | 5.83 | – | > 100000 | –
14 | Nc1n[nH]c2cccc(C#Cc3cccc(NC(=O)c4cc(C(F)(F)F)cc(C(F)(F)F)c4)c3)c12 | > 10000 | < 4.70 | – | – | –
15 | Nc1n[nH]c2cccc(C#Cc3cccc(NC(=O)c4cc(N5CCOCC5)cc(C(F)(F)F)c4)c3)c12 | 2210 | 5.32 | – | > 100000 | –

From ChEMBL document CHEMBL4765455, “Design, synthesis, and biological evaluations of novel 3-amino-4-ethynyl indazole derivatives as Bcr-Abl kinase inhibitors with potent cellular antileukemic activity” (Eur J Med Chem, 2020)
